Measured values reported in publication PMC11079024, “Identification of a family of species-selective complex I inhibitors as potential anthelmintics” (Nature Communications, 2024).
Like-named read-outs stand apart in the source and are kept apart here.

Legend:
[1] = biological target: C. elegans (N2) complex I (NADH:ubiquinone oxidoreductase) (Caenorhabditis elegans, UniProt P24887+Q93873+Q94360); assay: biochemical; type: biochemical; conditions: for Log IC50 C. elegans complex I: log10 of IC50 in µM, C. elegans mitochondria; for activity at 0.0001 µM / activity at 0.0005 µM / activity at 0.001 µM / activity at 0.0025 µM / activity at 0.005 µM / activity at 0.013 µM / activity at 0.025 µM / activity at 0.063 µM / activity at 0.125 µM / activity at 0.313 µM / activity at 0.625 µM / activity at 1.5 µM / activity at 3 µM / activity at 15 µM / activity at 37.5 µM / activity at 75 µM: read-out: C. elegans mitochondrial complex I activity
Outline: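 Mitochondria from liquid-cultured adults were freeze-thawed thrice before the 15-min DCIP-coupled NADH oxidation read.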

L1 wild-type C. elegans [2] = conditions: for Screen "Hit": 50 μM
L1 wild-type C. elegans [3] = assay: microbe, parasite or virus in culture; conditions: Caenorhabditis elegans, read-out: C. elegans KCN Survival Assay LC50, estimated from fitted dose-response curves; mean of at least two biological replicates
[4] = wild-type C. elegans, individual Rep1-Rep4, read-out: percent in vitro complex I activity relative to solvent control, single replicates
[5] = wild-type C. elegans, mean of Rep1-4, read-out: percent in vitro complex I activity relative to solvent control, Mean
[6] = in vitro complex I dose response on C. elegans mitochondria, average of at least two biological replicates, fit in R (DRC), read-out: IC50 C. elegans complex I
[7] = wild-type (N2) mitochondria, read-out: C. elegans Complex I IC50
[8] = wild-type C. elegans mitochondria, estimated from fitted dose-response curves, read-out: C. elegans Complex I IC50
[9] = KCN survival assay, hit = relative motility below 0.25
[10] = wild-type C. elegans mitochondria, read-out: C. elegans Complex I IC50
[11] = Dose 0.2 µM, mean of at least three biological replicates
[12] = hit = relative motility below 0.25 3 hours after removal of KCN

C. elegans (N2) complex I (NADH:ubiquinone oxidoreductase), sequence (Q94360 17-199): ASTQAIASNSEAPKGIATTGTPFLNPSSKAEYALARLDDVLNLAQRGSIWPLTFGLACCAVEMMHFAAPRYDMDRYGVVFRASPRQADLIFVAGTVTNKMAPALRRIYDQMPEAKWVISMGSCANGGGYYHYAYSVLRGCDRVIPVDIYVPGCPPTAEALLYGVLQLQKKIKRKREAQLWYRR
C. elegans (N2) complex I (NADH:ubiquinone oxidoreductase), sequence (P24887 whole entry): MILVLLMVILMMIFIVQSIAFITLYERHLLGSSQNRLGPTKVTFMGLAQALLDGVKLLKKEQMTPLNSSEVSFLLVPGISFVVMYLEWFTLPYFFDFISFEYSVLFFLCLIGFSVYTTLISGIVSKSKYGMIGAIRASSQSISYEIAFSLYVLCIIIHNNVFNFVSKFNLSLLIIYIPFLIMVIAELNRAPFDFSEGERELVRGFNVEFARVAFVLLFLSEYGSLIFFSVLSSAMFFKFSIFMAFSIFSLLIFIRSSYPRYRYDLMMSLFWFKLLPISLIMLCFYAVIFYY
C. elegans (N2) complex I (NADH:ubiquinone oxidoreductase), sequence (Q93873 31-482): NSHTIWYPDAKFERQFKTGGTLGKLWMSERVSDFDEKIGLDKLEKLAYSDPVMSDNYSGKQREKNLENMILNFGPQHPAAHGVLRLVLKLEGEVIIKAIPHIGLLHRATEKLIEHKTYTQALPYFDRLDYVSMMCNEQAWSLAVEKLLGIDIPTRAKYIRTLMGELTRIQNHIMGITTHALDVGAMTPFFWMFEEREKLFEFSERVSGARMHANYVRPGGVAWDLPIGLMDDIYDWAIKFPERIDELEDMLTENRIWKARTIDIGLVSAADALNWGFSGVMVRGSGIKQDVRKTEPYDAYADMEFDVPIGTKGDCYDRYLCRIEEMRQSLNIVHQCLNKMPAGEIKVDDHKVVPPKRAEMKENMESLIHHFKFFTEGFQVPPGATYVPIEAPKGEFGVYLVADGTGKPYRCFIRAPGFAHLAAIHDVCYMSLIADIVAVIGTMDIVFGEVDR

Cc1nc2ccccc2n1Cc1ccc(Br)cc1 [Compound 5567167]
remaining activity at 0.0001 µM [1, 4]: 94%
remaining activity at 0.0001 µM [1, 5]: 85.9%
remaining activity at 0.0005 µM [1, 4]: 85.1%
remaining activity at 0.0005 µM [1, 5]: 85.6%
remaining activity at 0.001 µM [1, 4]: 85.9%
remaining activity at 0.001 µM [1, 5]: 84.4%
remaining activity at 0.0025 µM ([1]; 0.0025 µM, wild-type C. elegans, mean of Rep1-4, read-out: percent in vitro complex I activity relative to solvent control, Mean): 79.7%
remaining activity at 0.005 µM [1, 4]: 78%
remaining activity at 0.005 µM [1, 5]: 79.5%
remaining activity at 0.013 µM [1, 4]: 72.2%
remaining activity at 0.013 µM [1, 5]: 70.5%
remaining activity at 0.025 µM [1, 4]: 66.7%
remaining activity at 0.025 µM [1, 5]: 62%
remaining activity at 0.063 µM [1, 4]: 38.8%
remaining activity at 0.063 µM [1, 5]: 36%
remaining activity at 0.125 µM [1, 4]: 23.6%
remaining activity at 0.125 µM [1, 5]: 23.7%
remaining activity at 0.313 µM [1, 4]: 8.78%
remaining activity at 0.313 µM [1, 5]: 11.9%
remaining activity at 0.625 µM ([1]; 0.625 µM, wild-type C. elegans, mean of Rep1-4, read-out: percent in vitro complex I activity relative to solvent control, Mean): 2.34%
remaining activity at 1.5 µM ([1]; 1.5 µM, wild-type C. elegans, mean of Rep1-4, read-out: percent in vitro complex I activity relative to solvent control, Mean): 0.485%
remaining activity at 3 µM ([1]; 3 µM, wild-type C. elegans, mean of Rep1-4, read-out: percent in vitro complex I activity relative to solvent control, Mean): 0.612%
remaining activity at 15 µM [1, 4]: 0%
remaining activity at 15 µM [1, 5]: 0%
remaining activity at 37.5 µM [1, 4]: 0%
remaining activity at 37.5 µM [1, 5]: 0%
remaining activity at 75 µM ([1]; 75 µM, wild-type C. elegans, mean of Rep1-4, read-out: percent in vitro complex I activity relative to solvent control, Mean): 0.911%
IC50 [1, 6]: 0.032 µM
Log IC50 C. elegans complex I [1]: -1.49 µM
IC50 [1, 7]: 0.032 µM
IC50 [1, 8]: 0.032 µM
Screen "Hit" (L1 wild-type C. elegans [2]; [9]): Y (hits were identified as compounds that reduced relative motility below 0.25 (75% reduction))
LC50 (L1 wild-type C. elegans [3]): 1.34 µM

Clc1ccc(Cn2cnc3ccccc32)cc1Cl [Compound 5571325]
activity at 0.0001 µM [1]: 90.4%
activity at 0.0005 µM [1]: 92.7%
activity at 0.001 µM [1]: 95.2%
activity at 0.0025 µM [1]: 95.4%
activity at 0.005 µM [1]: 92.8%
activity at 0.013 µM [1]: 92.4%
activity at 0.025 µM [1]: 92.1%
activity at 0.063 µM [1]: 90.9%
activity at 0.125 µM [1]: 87.7%
activity at 0.313 µM [1]: 83.6%
activity at 0.625 µM [1]: 83%
activity at 1.5 µM [1]: 69.7%
activity at 3 µM [1]: 57.2%
activity at 15 µM [1]: 19%
activity at 37.5 µM [1]: 8.47%
activity at 75 µM [1]: 7.02%
IC50 [1, 6]: 4.38 µM
Log IC50 C. elegans complex I [1]: 0.64 µM
IC50 [1, 7]: 4.38 µM
IC50 [1, 10]: 4.38 µM
Screen "Hit" (L1 wild-type C. elegans [2]; [9]): Y (hits were identified as compounds that reduced relative motility below 0.25 (75% reduction))
C. elegans KCN Survival (L1 wild-type C. elegans [2]; [11]): 1.000
C. elegans KCN Survival (L1 wild-type C. elegans [2]; Dose 0.39 µM): 0.996
C. elegans KCN Survival (L1 wild-type C. elegans [2]; Dose 1.56 µM): 1.008
C. elegans KCN Survival (L1 wild-type C. elegans [2]; Dose 3.13 µM): 0.957
C. elegans KCN Survival (L1 wild-type C. elegans [2]; Dose 6.25 µM): 0.819
C. elegans KCN Survival (L1 wild-type C. elegans [2]; Dose 12.5 µM): 0.586
C. elegans KCN Survival (L1 wild-type C. elegans [2]; Dose 25 µM): 0.133
C. elegans KCN Survival (L1 wild-type C. elegans [2]; Dose 50 µM): 0.122
C. elegans KCN Survival (L1 wild-type C. elegans [2]; Dose 100 µM): 0.206
LC50 (L1 wild-type C. elegans [3]): 13.1 µM

Cc1ccc(OCCn2cnc3ccccc32)c(C)c1 [Compound 7706808]
activity at 0.0001 µM [1]: 101%
activity at 0.0005 µM [1]: 107%
activity at 0.001 µM [1]: 103%
activity at 0.0025 µM [1]: 109%
activity at 0.005 µM [1]: 101%
activity at 0.013 µM [1]: 107%
activity at 0.025 µM [1]: 105%
activity at 0.063 µM [1]: 101%
activity at 0.125 µM [1]: 94.3%
activity at 0.313 µM [1]: 97.4%
activity at 0.625 µM [1]: 70.9%
activity at 1.5 µM [1]: 55.5%
activity at 3 µM [1]: 44.2%
activity at 15 µM [1]: 16.3%
activity at 37.5 µM [1]: 13.2%
activity at 75 µM [1]: 13.5%
IC50 [1, 6]: 1.45 µM
Log IC50 C. elegans complex I [1]: 0.16 µM
IC50 [1, 8]: 1.45 µM
Screen "Hit" (L1 wild-type C. elegans [2]; [12]): Y (hits were identified as compounds that reduced relative motility below 0.25 (75% reduction))
C. elegans KCN Survival (L1 wild-type C. elegans [2]; [11]): 0.957
C. elegans KCN Survival (L1 wild-type C. elegans [2]; Dose 0.39 µM): 1.031
C. elegans KCN Survival (L1 wild-type C. elegans [2]; Dose 1.56 µM): 1.000
C. elegans KCN Survival (L1 wild-type C. elegans [2]; Dose 3.13 µM): 0.998
C. elegans KCN Survival (L1 wild-type C. elegans [2]; Dose 6.25 µM): 0.894
C. elegans KCN Survival (L1 wild-type C. elegans [2]; Dose 12.5 µM): 0.483
C. elegans KCN Survival (L1 wild-type C. elegans [2]; Dose 25 µM): 0.132
C. elegans KCN Survival (L1 wild-type C. elegans [2]; Dose 50 µM): 0.135
C. elegans KCN Survival (L1 wild-type C. elegans [2]; Dose 100 µM): 0.199
LC50 (L1 wild-type C. elegans [3]): 12 µM

Nc1nc2ccccc2n1Cc1ccc(Cl)cc1 [Compound 5652765]
activity at 0.0001 µM [1]: 86.1%
activity at 0.0005 µM [1]: 92.1%
activity at 0.001 µM [1]: 93.5%
activity at 0.0025 µM [1]: 93.8%
activity at 0.005 µM [1]: 90.5%
activity at 0.013 µM [1]: 90.4%
activity at 0.025 µM [1]: 78.8%
activity at 0.063 µM [1]: 76.6%
activity at 0.125 µM [1]: 72.5%
activity at 0.313 µM [1]: 39.7%
activity at 0.625 µM [1]: 49.3%
activity at 1.5 µM [1]: 25.2%
activity at 3 µM [1]: 11.5%
activity at 15 µM [1]: 0.44%
activity at 37.5 µM [1]: 0.7%
activity at 75 µM [1]: 0.75%
IC50 [1, 6]: 0.47 µM
Log IC50 C. elegans complex I [1]: -0.33 µM
IC50 [1, 7]: 0.47 µM
IC50 [1, 8]: 0.47 µM
Screen "Hit" (L1 wild-type C. elegans [2]; [9]): Y (hits were identified as compounds that reduced relative motility below 0.25 (75% reduction))
C. elegans KCN Survival (L1 wild-type C. elegans [2]; [11]): 0.973
C. elegans KCN Survival (L1 wild-type C. elegans [2]; Dose 0.39 µM): 1.034
C. elegans KCN Survival (L1 wild-type C. elegans [2]; Dose 1.56 µM): 1.067
C. elegans KCN Survival (L1 wild-type C. elegans [2]; Dose 3.13 µM): 1.051
C. elegans KCN Survival (L1 wild-type C. elegans [2]; Dose 6.25 µM): 1.001
C. elegans KCN Survival (L1 wild-type C. elegans [2]; Dose 12.5 µM): 0.758
C. elegans KCN Survival (L1 wild-type C. elegans [2]; Dose 25 µM): 0.271
C. elegans KCN Survival (L1 wild-type C. elegans [2]; Dose 50 µM): 0.140
C. elegans KCN Survival (L1 wild-type C. elegans [2]; Dose 100 µM): 0.216
LC50 (L1 wild-type C. elegans [3]): 16.9 µM

CCc1cc(OCCn2cnc3ccccc32)ccc1Cl [Compound 7925288]
activity at 0.0001 µM [1]: 89.3%
activity at 0.0005 µM [1]: 90.8%
activity at 0.001 µM [1]: 94%
activity at 0.0025 µM [1]: 90.8%
activity at 0.005 µM [1]: 98.8%
activity at 0.013 µM [1]: 96.9%
activity at 0.025 µM [1]: 96.9%
activity at 0.063 µM [1]: 63.2%
activity at 0.125 µM [1]: 63.3%
activity at 0.313 µM [1]: 77.6%
activity at 0.625 µM [1]: 77.6%
activity at 1.5 µM [1]: 60.7%
activity at 3 µM [1]: 46.8%
activity at 15 µM [1]: 16.1%
activity at 37.5 µM [1]: 4.53%
activity at 75 µM [1]: 2.28%
IC50 [1, 6]: 8.09 µM
Log IC50 C. elegans complex I [1]: 0.91 µM
IC50 [1, 10]: 8.09 µM
Screen "Hit" (L1 wild-type C. elegans [2]; [12]): Y (hits were identified as compounds that reduced relative motility below 0.25 (75% reduction))
C. elegans KCN Survival (L1 wild-type C. elegans [2]; [11]): 1.082
C. elegans KCN Survival (L1 wild-type C. elegans [2]; Dose 0.39 µM): 1.088
C. elegans KCN Survival (L1 wild-type C. elegans [2]; Dose 1.56 µM): 1.105
C. elegans KCN Survival (L1 wild-type C. elegans [2]; Dose 3.13 µM): 1.186
C. elegans KCN Survival (L1 wild-type C. elegans [2]; Dose 6.25 µM): 1.064
C. elegans KCN Survival (L1 wild-type C. elegans [2]; Dose 12.5 µM): 0.930
C. elegans KCN Survival (L1 wild-type C. elegans [2]; Dose 25 µM): 0.276
C. elegans KCN Survival (L1 wild-type C. elegans [2]; Dose 50 µM): 0.146
C. elegans KCN Survival (L1 wild-type C. elegans [2]; Dose 100 µM): 0.159
LC50 (L1 wild-type C. elegans [3]): 19.1 µM
